Measured values as given in patent publication US20220249538A1, “TREATMENT AGENT FOR SEX HORMONE-INSENSITIVE GREB1-POSITIVE TUMORS” (OSAKA UNIVERSITY, priority 2019, published 2022).

What was measured:
Format in all cases: cell-based, human
[1] = system: GREB1; experiment: GREB1 expression in HepG2 cells after GREB1 siRNA or GREB1 ASO (cell lysates probed with anti-GREB1 antibody); conditions: siRNA 10 nm, lysate probing
Procedure: Phosphorothioated I5-mer antisense oligonucleotides (ASOs) containing AmNA monomers were prepared (synthesized by GeneDesign (Ibaraki, Japan)). In the present specification, “hGREB1-6424-AmNA (15)” is sometimes simply referred to as “ASO-6424” or “GREB1 ASO-6424”. Similar abbreviations are used for describing other ASOs. Using RNAiMAX (Invitrogen, Carlsbad, Calif., USA), HepG2 or COLO679 cells were transfected with 10 nM of ASOs. In experiments, the cells were used from 36 to 48 hours after transfection.
Using RNAiMAX (Life Technologies/Thermo Fisher Scientific), HepG2 cells, Huh6 cells, Hep3B cells, JHH7 cells, and SKMEL28 cells were each transfected with each siRNA (10 nm). In experiments, the cells were used from 48 to 120 hours after transfection.
As reported previously, knockdown of β-catenin decreased HepG2 cell proliferation (see a of FIG. 3). […] Thus, to elucidate the role of GREB1 in HepG2 cells, knockdown of GREB1 was carried out using two different siRNAs.
Next, HepG2 cells were transfected with control ASO or each of the above-described GREB1 ASOs, cultured in a medium containing 10% FBS for 2 days, and the cell lysates were probed with anti-GREB1 antibody and anti-HSP90 antibody.

[2] = system: HepG2 cells; experiment: Three-dimensional Matrigel culture, area of spheres; conditions: 3D Matrigel for 5 days
Procedure: Cells grown on a glass cover slip were fixed with PBS containing 4% (w/v) paraformaldehyde at room temperature for 10 minutes, and permeabilization treatment was performed in PBS containing 0.2% (w/v) Triton X-100 and 2 mg/ml BSA for 10 minutes. Further, cells grown by three-dimensional culture were fixed in PBS containing 4% (w/v) paraformaldehyde at room temperature for 30 minutes, and blocked in PBS containing 0.5% (w/v) Triton X-100 and 40 mg/ml BSA for 30 minutes. […]
Further, HepG2 cells transfected with control siRNA or siRNA (GREB1 #2 siRNA) were cultured in 3D Matrigel for 5 days, and the cultured cells were stained with phalloidin to measure the areas of spheres (n=20). […] The ratio of spheres having polarized lumens was calculated as a ratio of spheres having F-actin-positive central microlumen to the total spheres.
Further, HepG2 cells expressing GFP or GFP-GREB1 were transfected with control ASO or each of the above-described GREB1 ASOs, and cultured in three-dimensional Matrigel for 4 days. The cultured cells were stained with phalloidin and Hoechst33342, and the areas of spheres were calculated (n=50).

[3] = system: HepG2 cells; experiment: Cell viability by propidium iodide and Hoechst33342 staining; conditions: medium without Z-VAD, 0.1% FBS, 2 days; PI and Hoechst33342
Procedure: Further, HepG2 cells were transfected with control siRNA or siRNAs (GREB1 #1 siRNA and GREB1 #2 siRNA), cultured in media (caspase inhibitor Z-VAD was contained in one condition, and not contained in the other condition) containing 0.1% FBS for 2 days, stained with propidium iodide (PI, […]) and Hoechst33342 (nucleus), and the cell viability was evaluated.
Further, HepG2 cells transfected with control siRNA, GREB1 siRNA (GREB1 #2 siRNA), p15 siRNA, or siRNA of GREB1 (GREB1 #2 siRNA) and siRNA of p15 in combination were cultured in media (caspase inhibitor Z-VAD was contained in one condition, and not contained in the other condition) containing 0.1% FBS for 2 days, stained with propidium iodide (PI) and Hoechst33342, and the cell viability was calculated.

## GREB1 #2 siRNA: siRNA against human GREB1; sense 5′-CCUCCUACAAAGCAAUAUUTT-3′ (SEQ ID NO: 6), antisense SEQ ID NO: 7 (antisense AAUAUUGCUUUGUAGGAGGTT; chemistry not given here)
[1]
  knockdown of GREB1 (anti-GREB1 antibody): knocked down
[2]
  ratio of spheres having polarized lumens: increased
[2]; phalloidin, n=20
  area of sphere: reduced the area of sphere to half
[3]
  cell death of HepG2 cells: elevated cell death
